The text below walks through data of US9220672B2, “Peptide for use in the treatment of skin conditions” (ORGANOBALANCE GMBH, priority 2011, dated 2015).

What all share (format): cell-based
Experiment [1] has as its system S. aureus. The experiment in a line: S. aureus in vitro liquid assay (microtiter plate, OD600nm). To be noted: 1 mg/ml, SCD-bouillon (1:2), pH 6.5, vs control devoid of additive. The protocol:
An S. aureus in vitro liquid assay was performed on a Microtiter plate having wells with a respective volume of 200 μl. To this effect, a 24 h cell culture of S. aureus was diluted 1:500 thus affording an optical density OD600nm of 0.05 in SCD-bouillon (1:2). One of the samples used in the experiment further contained the inventive tetrapeptide H-Lys(H-Asp-NH2)-Ala-Glu-NH2 in a concentration of 1 mg/ml. The pH of the samples was 6.5.

Experiment [2] concerns S. epidermidis. The experiment in a line: S. epidermidis in vitro liquid assay (microtiter plate, OD600nm). To be noted: SCD-bouillon (1:2), pH 6.5, vs control devoid of additive. The procedure: A Microtiter plate having wells with a respective volume of 200 μl was used for the S. epidermidis in vitro liquid assay. To this effect, a 24 h cell culture of S. epidermidis was diluted 1:200 thus affording an optical density OD600nm of 0.06 in SCD-bouillon (1:2). The samples used in the experiment further contained the inventive tetrapeptide H-Lys(H-Asp-NH2)-Ala-Glu-NH2 in respective concentrations of 1 mg/ml and 0.2 mg/ml. As control assay, samples containing 1 mg/ml of a mixture containing Alanine, Glutamine, Lysine, and Asparagine in equal parts and samples containing no further components in addition to S. epidermidis were respectively employed. The pH of all of the samples was 6.5.

Experiment [3] concerns S. epidermidis. The experiment in a line: S. epidermidis growth stimulation, in-vitro hole plate assay on tellurite-TSA. To be noted: 40 μl of 1 mg/ml solution per well, 35° C., 24 h, vs water control. The protocol:
To this effect, an S. epidermidis growth simulation assay was employed, using potassium tellurite as the growth indicator, observed in the assay as brown zones. An S. epidermidis log phase culture at 1:200 (containing approximately 1×10^7 cfu/ml of bacteria) was used as the working culture in the experiment.
The working culture was plated onto tellurite-TSA, after which 5 mm diameter holes were respectively punched into the agar for forming the testing wells. 40 μl of a solution containing the tetrapeptide at a concentration of 1 mg/ml were then added to a first and second well, and the same volume of water was added as the control to a third well. The Petri dish was then incubated at 35° C. for 24 h.

As for `CC(NC(=O)C(N)CCCCNC(=O)CC(N)C(N)=O)C(=O)NC(CCC(=O)O)C(N)=O` (stereo not drawn) [H-Lys(H-Asp-NH2)-Ala-Glu-NH2], the “growth of S. aureus (optical density OD600nm over incubation time)” value in experiment [1] is “clearly inhibited”. Besides, the “growth of S. epidermidis (optical density OD600nm over incubation time)” value was “stimulation is already apparent” in experiment [2] (0.2 mg/ml) and “clearly stimulates the growth” in experiment [2] (1 mg/ml). For the same compound, the “growth of S. epidermidis (tellurite growth indicator zone around well)” value is reported as “able to stimulate the growth” in experiment [3] and “clearly stimulated” in experiment [3] (listed as inventive tetrapeptide).
